Numbers after ± are expanded uncertainties.
Conditions: Liquid, Vibrating tube method

Cc1cccc(O)c1 [3-methylphenol]
mass density (313.22 K, 1001 kPa): 1019.1 ± 0.3 kg/m3
mass density (313.22 K, 2012 kPa): 1019.8 ± 0.3 kg/m3
mass density (313.22 K, 3024 kPa): 1020.3 ± 0.3 kg/m3
mass density (313.22 K, 4007 kPa): 1020.9 ± 0.3 kg/m3
mass density (313.22 K, 4992 kPa): 1021.4 ± 0.3 kg/m3
mass density (313.22 K, 6027 kPa): 1022 ± 0.3 kg/m3
mass density (313.22 K, 7013 kPa): 1022.6 ± 0.3 kg/m3
mass density (313.22 K, 8000 kPa): 1023.1 ± 0.3 kg/m3
mass density (313.22 K, 9008 kPa): 1023.7 ± 0.3 kg/m3
mass density (313.22 K, 10014 kPa): 1024.3 ± 0.3 kg/m3
mass density (313.22 K, 11015 kPa): 1024.8 ± 0.3 kg/m3
mass density (313.22 K, 12040 kPa): 1025.4 ± 0.3 kg/m3
mass density (313.22 K, 13022 kPa): 1026 ± 0.3 kg/m3
mass density (313.22 K, 14023 kPa): 1026.4 ± 0.3 kg/m3
mass density (313.22 K, 15002 kPa): 1026.9 ± 0.3 kg/m3
mass density (313.22 K, 16009 kPa): 1027.5 ± 0.3 kg/m3
mass density (313.22 K, 17020 kPa): 1028 ± 0.3 kg/m3
mass density (313.22 K, 18021 kPa): 1028.5 ± 0.3 kg/m3
mass density (313.22 K, 19016 kPa): 1029 ± 0.3 kg/m3
mass density (313.22 K, 20026 kPa): 1029.6 ± 0.3 kg/m3
mass density (313.22 K, 21024 kPa): 1030.1 ± 0.3 kg/m3
mass density (313.22 K, 22026 kPa): 1030.7 ± 0.3 kg/m3
mass density (313.22 K, 23030 kPa): 1031.1 ± 0.3 kg/m3
mass density (313.22 K, 24017 kPa): 1031.6 ± 0.3 kg/m3
mass density (313.22 K, 25019 kPa): 1032.2 ± 0.3 kg/m3
mass density (322.9 K, 1014 kPa): 1011.2 ± 0.3 kg/m3
mass density (322.9 K, 2041 kPa): 1011.8 ± 0.3 kg/m3
mass density (322.9 K, 3002 kPa): 1012.4 ± 0.3 kg/m3
mass density (322.9 K, 4014 kPa): 1013 ± 0.3 kg/m3
mass density (322.9 K, 5012 kPa): 1013.6 ± 0.3 kg/m3
mass density (322.9 K, 6022 kPa): 1014.2 ± 0.3 kg/m3
mass density (322.9 K, 7020 kPa): 1014.7 ± 0.3 kg/m3
mass density (322.9 K, 8018 kPa): 1015.3 ± 0.3 kg/m3
mass density (322.9 K, 9020 kPa): 1015.9 ± 0.3 kg/m3
mass density (322.9 K, 10005 kPa): 1016.4 ± 0.3 kg/m3
mass density (322.9 K, 11018 kPa): 1017 ± 0.3 kg/m3
mass density (322.9 K, 12019 kPa): 1017.6 ± 0.3 kg/m3
mass density (322.9 K, 13017 kPa): 1018.2 ± 0.3 kg/m3
mass density (322.9 K, 14010 kPa): 1018.7 ± 0.3 kg/m3
mass density (322.9 K, 15022 kPa): 1019.3 ± 0.3 kg/m3
mass density (322.9 K, 16000 kPa): 1019.8 ± 0.3 kg/m3
mass density (322.9 K, 17011 kPa): 1020.4 ± 0.3 kg/m3
mass density (322.9 K, 18018 kPa): 1020.9 ± 0.3 kg/m3
mass density (322.9 K, 19018 kPa): 1021.4 ± 0.3 kg/m3
mass density (322.9 K, 20009 kPa): 1022 ± 0.3 kg/m3
mass density (322.9 K, 21019 kPa): 1022.6 ± 0.3 kg/m3
mass density (322.9 K, 22019 kPa): 1023.1 ± 0.3 kg/m3
mass density (322.9 K, 23006 kPa): 1023.6 ± 0.3 kg/m3
mass density (322.9 K, 24012 kPa): 1024.1 ± 0.3 kg/m3
mass density (322.9 K, 25019 kPa): 1024.7 ± 0.3 kg/m3
mass density (332.61 K, 1018 kPa): 1003.3 ± 0.3 kg/m3
mass density (332.61 K, 2014 kPa): 1004 ± 0.3 kg/m3
mass density (332.61 K, 3003 kPa): 1004.5 ± 0.3 kg/m3
mass density (332.61 K, 4030 kPa): 1005.2 ± 0.3 kg/m3
mass density (332.61 K, 5000 kPa): 1005.8 ± 0.3 kg/m3
mass density (332.61 K, 6022 kPa): 1006.4 ± 0.3 kg/m3
mass density (332.61 K, 7020 kPa): 1006.9 ± 0.3 kg/m3
mass density (332.61 K, 8020 kPa): 1007.5 ± 0.3 kg/m3
mass density (332.61 K, 9003 kPa): 1008.1 ± 0.3 kg/m3
mass density (332.61 K, 10014 kPa): 1008.7 ± 0.3 kg/m3
mass density (332.61 K, 11012 kPa): 1009.3 ± 0.3 kg/m3
mass density (332.61 K, 12000 kPa): 1009.9 ± 0.3 kg/m3
mass density (332.61 K, 13000 kPa): 1010.4 ± 0.3 kg/m3
mass density (332.61 K, 14028 kPa): 1011 ± 0.3 kg/m3
mass density (332.61 K, 15028 kPa): 1011.6 ± 0.3 kg/m3
mass density (332.61 K, 16023 kPa): 1012.2 ± 0.3 kg/m3
mass density (332.61 K, 17000 kPa): 1012.7 ± 0.3 kg/m3
mass density (332.61 K, 18008 kPa): 1013.3 ± 0.3 kg/m3
mass density (332.61 K, 19000 kPa): 1013.9 ± 0.3 kg/m3
mass density (332.61 K, 20001 kPa): 1014.4 ± 0.3 kg/m3
mass density (332.61 K, 21013 kPa): 1014.9 ± 0.3 kg/m3
mass density (332.61 K, 22010 kPa): 1015.5 ± 0.3 kg/m3
mass density (332.61 K, 23007 kPa): 1016 ± 0.3 kg/m3
mass density (332.61 K, 24000 kPa): 1016.6 ± 0.3 kg/m3
mass density (332.61 K, 25008 kPa): 1017.1 ± 0.3 kg/m3
mass density (342.27 K, 2018 kPa): 995.8 ± 0.3 kg/m3
mass density (342.27 K, 2999 kPa): 996.4 ± 0.3 kg/m3
mass density (342.27 K, 3998 kPa): 997 ± 0.3 kg/m3
mass density (342.27 K, 4976 kPa): 997.6 ± 0.3 kg/m3
mass density (342.27 K, 5984 kPa): 998.3 ± 0.3 kg/m3
mass density (342.27 K, 7059 kPa): 998.9 ± 0.3 kg/m3
mass density (342.27 K, 8070 kPa): 999.7 ± 0.3 kg/m3
mass density (342.27 K, 8967 kPa): 1000.2 ± 0.3 kg/m3
mass density (342.27 K, 9994 kPa): 1000.8 ± 0.3 kg/m3
mass density (342.27 K, 10921 kPa): 1001.4 ± 0.3 kg/m3
mass density (342.27 K, 11964 kPa): 1002.1 ± 0.3 kg/m3
mass density (342.27 K, 12971 kPa): 1002.6 ± 0.3 kg/m3
mass density (342.27 K, 13954 kPa): 1003.2 ± 0.3 kg/m3
mass density (342.27 K, 14960 kPa): 1004 ± 0.3 kg/m3
mass density (342.27 K, 15941 kPa): 1004.3 ± 0.3 kg/m3
mass density (342.27 K, 16963 kPa): 1005.1 ± 0.3 kg/m3
mass density (342.27 K, 17992 kPa): 1005.8 ± 0.3 kg/m3
mass density (342.27 K, 18963 kPa): 1006.2 ± 0.3 kg/m3
mass density (342.27 K, 19996 kPa): 1006.7 ± 0.3 kg/m3
mass density (342.27 K, 21003 kPa): 1007.5 ± 0.3 kg/m3
mass density (342.27 K, 21974 kPa): 1008 ± 0.3 kg/m3
mass density (342.27 K, 22968 kPa): 1008.7 ± 0.3 kg/m3
mass density (342.27 K, 24051 kPa): 1009.2 ± 0.3 kg/m3
mass density (342.27 K, 24971 kPa): 1009.7 ± 0.3 kg/m3
mass density (352.06 K, 1951 kPa): 988.5 ± 0.3 kg/m3
mass density (352.06 K, 2979 kPa): 989.1 ± 0.3 kg/m3
mass density (352.06 K, 4034 kPa): 989.8 ± 0.3 kg/m3
mass density (352.06 K, 4966 kPa): 990.3 ± 0.3 kg/m3
mass density (352.06 K, 5929 kPa): 990.9 ± 0.3 kg/m3
mass density (352.06 K, 7014 kPa): 991.6 ± 0.3 kg/m3
mass density (352.06 K, 8011 kPa): 992.2 ± 0.3 kg/m3
mass density (352.06 K, 8921 kPa): 992.8 ± 0.3 kg/m3
mass density (352.06 K, 9982 kPa): 993.4 ± 0.3 kg/m3
mass density (352.06 K, 10938 kPa): 994 ± 0.3 kg/m3
mass density (352.06 K, 11975 kPa): 994.6 ± 0.3 kg/m3
mass density (352.06 K, 12999 kPa): 995.3 ± 0.3 kg/m3
mass density (352.06 K, 13907 kPa): 995.8 ± 0.3 kg/m3
mass density (352.06 K, 14981 kPa): 996.5 ± 0.3 kg/m3
mass density (352.06 K, 15966 kPa): 997.1 ± 0.3 kg/m3
mass density (352.06 K, 16996 kPa): 997.7 ± 0.3 kg/m3
mass density (352.06 K, 17984 kPa): 998.3 ± 0.3 kg/m3
mass density (352.06 K, 18991 kPa): 998.9 ± 0.3 kg/m3
mass density (352.06 K, 20005 kPa): 999.5 ± 0.3 kg/m3
mass density (352.06 K, 21038 kPa): 1000.1 ± 0.3 kg/m3
mass density (352.06 K, 22019 kPa): 1000.6 ± 0.3 kg/m3
mass density (352.06 K, 23001 kPa): 1001.2 ± 0.3 kg/m3
mass density (352.06 K, 24029 kPa): 1001.8 ± 0.3 kg/m3
mass density (352.06 K, 24969 kPa): 1002.3 ± 0.3 kg/m3
mass density (361.9 K, 1990 kPa): 980.5 ± 0.3 kg/m3
mass density (361.9 K, 3001 kPa): 981.2 ± 0.3 kg/m3
mass density (361.9 K, 4024 kPa): 981.8 ± 0.3 kg/m3
mass density (361.9 K, 5019 kPa): 982.5 ± 0.3 kg/m3
mass density (361.9 K, 6014 kPa): 983.1 ± 0.3 kg/m3
mass density (361.9 K, 7025 kPa): 983.7 ± 0.3 kg/m3
mass density (361.9 K, 8019 kPa): 984.4 ± 0.3 kg/m3
mass density (361.9 K, 9010 kPa): 985 ± 0.3 kg/m3
mass density (361.9 K, 9978 kPa): 985.6 ± 0.3 kg/m3
mass density (361.9 K, 11019 kPa): 986.3 ± 0.3 kg/m3
mass density (361.9 K, 12038 kPa): 986.9 ± 0.3 kg/m3
mass density (361.9 K, 13020 kPa): 987.6 ± 0.3 kg/m3
mass density (361.9 K, 14021 kPa): 988.2 ± 0.3 kg/m3
mass density (361.9 K, 15006 kPa): 988.8 ± 0.3 kg/m3
mass density (361.9 K, 15970 kPa): 989.4 ± 0.3 kg/m3
mass density (361.9 K, 16988 kPa): 990.1 ± 0.3 kg/m3
mass density (361.9 K, 17991 kPa): 990.7 ± 0.3 kg/m3
mass density (361.9 K, 19016 kPa): 991.4 ± 0.3 kg/m3
mass density (361.9 K, 20042 kPa): 992 ± 0.3 kg/m3
mass density (361.9 K, 20983 kPa): 992.6 ± 0.3 kg/m3
mass density (361.9 K, 22034 kPa): 993.3 ± 0.3 kg/m3
mass density (361.9 K, 23021 kPa): 993.9 ± 0.3 kg/m3
mass density (361.9 K, 24011 kPa): 994.6 ± 0.3 kg/m3
mass density (361.9 K, 24912 kPa): 995.1 ± 0.3 kg/m3
